# Data as given in ChEMBL document CHEMBL3739285, “Fluorescent sulfonamide carbonic anhydrase inhibitors incorporating 1,2,3-triazole moieties: Kinetic and X-ray crystallographic studies” (Bioorg Med Chem, 2016).
# Assays:
# [1] = biological target: Carbonic anhydrase 9 (Homo sapiens, UniProt Q16790)
# Description: Inhibition of human carbonic anhydrase-9 preincubated for 15 mins by stopped flow CO2 dehydration method
# [2] = biological target: Carbonic anhydrase 14 (Homo sapiens, UniProt Q9ULX7)
# Description: Inhibition of human carbonic anhydrase-14 preincubated for 15 mins by stopped flow CO2 dehydration method
# [3] = biological target: Carbonic anhydrase 2 (Homo sapiens, UniProt P00918); experiment: Inhibition of human carbonic anhydrase-2 preincubated for 15 mins by stopped flow CO2 dehydration method
# [4] = biological target: Carbonic anhydrase 1 (Homo sapiens, UniProt P00915); experiment: Inhibition of human carbonic anhydrase-1 preincubated for 15 mins by stopped flow CO2 dehydration method
# Sequence of Carbonic anhydrase 1 (P00915 whole entry): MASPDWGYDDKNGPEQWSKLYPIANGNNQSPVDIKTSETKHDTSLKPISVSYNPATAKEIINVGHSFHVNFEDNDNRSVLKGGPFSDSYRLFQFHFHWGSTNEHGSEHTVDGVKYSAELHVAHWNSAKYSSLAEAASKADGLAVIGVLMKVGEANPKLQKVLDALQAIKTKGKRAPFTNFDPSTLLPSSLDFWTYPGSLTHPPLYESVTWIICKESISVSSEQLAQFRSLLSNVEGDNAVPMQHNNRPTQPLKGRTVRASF
# [5] = biological target: Carbonic anhydrase 12 (Homo sapiens, UniProt O43570); experiment: Inhibition of human carbonic anhydrase-12 preincubated for 15 mins by stopped flow CO2 dehydration method
# Sequence of Carbonic anhydrase 12 (O43570 whole entry): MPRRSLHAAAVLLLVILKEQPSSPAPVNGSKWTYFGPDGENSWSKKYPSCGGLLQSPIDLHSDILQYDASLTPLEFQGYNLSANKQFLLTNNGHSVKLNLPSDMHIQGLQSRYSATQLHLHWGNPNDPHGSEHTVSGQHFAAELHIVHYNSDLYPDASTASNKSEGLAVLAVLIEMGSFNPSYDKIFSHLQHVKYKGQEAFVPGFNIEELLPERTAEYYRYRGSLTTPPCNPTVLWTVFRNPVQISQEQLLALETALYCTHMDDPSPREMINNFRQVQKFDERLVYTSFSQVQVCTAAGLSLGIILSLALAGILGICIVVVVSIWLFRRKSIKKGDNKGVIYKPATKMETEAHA
# [6] = species on record: Homo sapiens; experiment: Selectivity ratio of Ki for human carbonic anhydrase-9 to Ki for human carbonic anhydrase-2
# [7] = Solubility of the compound in phosphate buffer at pH 7.4; assay type: physicochemical
# Sequence of Carbonic anhydrase 14 (Q9ULX7 whole entry): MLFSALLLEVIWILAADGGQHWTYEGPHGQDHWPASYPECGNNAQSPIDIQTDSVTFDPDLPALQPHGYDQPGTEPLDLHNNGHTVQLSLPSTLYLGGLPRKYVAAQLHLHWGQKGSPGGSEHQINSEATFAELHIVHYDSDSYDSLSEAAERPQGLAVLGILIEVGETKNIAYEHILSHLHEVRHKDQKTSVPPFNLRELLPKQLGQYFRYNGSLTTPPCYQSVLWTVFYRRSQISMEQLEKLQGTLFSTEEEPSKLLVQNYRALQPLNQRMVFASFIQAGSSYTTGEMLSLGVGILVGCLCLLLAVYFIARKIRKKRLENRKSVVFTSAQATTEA
smiles,measurement,setting,value
CN(C)c1ccc2c(-c3ccc(NC(=S)NCc4cn(-c5cccc(S(N)(=O)=O)c5)nn4)cc3C(=O)O)c3ccc(=[N+](C)C)cc-3oc2c1,Ki,[1],24.3 nM
same,Ki,[2],31.4 nM
same,Ki,[3],88 nM
same,Ki,[4],6.42 µM
same,Ki,[5],10.7 nM
same,Ratio Ki,[6],3.62
NS(=O)(=O)c1ccc(CNC(=S)Nc2ccc(-c3c4ccc(=O)cc-4oc4cc(O)ccc34)c(C(=O)O)c2)cc1,Ki,[2],41 nM
same,solubility,[7],1200 µg/mL
same,Ki,[5],7 nM
NS(=O)(=O)c1ccc(-n2cc(CNC(=S)Nc3ccc(-c4c5ccc(=O)cc-5oc5cc(O)ccc45)c(C(=O)O)c3)nn2)cc1,Ki,[1],8.1 nM
same,Ki,[3],36 nM
same,solubility,[7],3800 µg/mL
same,Ki,[4],2.56 µM
same,Ki,[5],4.1 nM
NS(=O)(=O)c1ccc(CCNC(=S)Nc2ccc(-c3c4ccc(=O)cc-4oc4cc(O)ccc34)c(C(=O)O)c2)cc1,Ki,[2],33 nM
NS(=O)(=O)c1cccc(-n2cc(CNC(=S)Nc3ccc(-c4c5ccc(=O)cc-5oc5cc(O)ccc45)c(C(=O)O)c3)nn2)c1,Ki,[1],36.9 nM
same,Ki,[3],127 nM
same,Ki,[4],7.63 µM
same,Ki,[5],20.5 nM
